The source made the active and inactive calls. The rule behind the calls is not given here.
Key:
[1] = Inhibition of keratin-10 expression in human PHK160b cells at 50 uM incubated for 48 hrs by quantitative RT-PCR analysis relative to untreated control; format: functional
Homo sapiens [2] = species: Homo sapiens; experiment: (§1) Induction of keratin-10 expression in human PHK160b cells at 50 uM incubated for 48 hrs by quantitative RT-PCR analysis relative to untreated control; format: functional
[3] = as §1; format: functional
Zone of skin [4] = experiment: Induction of keratinocyte differentiation in human EPI-212 EpiDerm skin model assessed as increase in filaggrin expression at 100 uM incubated for 7 days by DAB based immunohistochemical staining analysis (Rvb= 20%); format: functional
[5] = Cell cycle arrest in human PHK160b cells assessed as accumulation at G2/M phase at 100 uM incubated for 48 hrs by propidium iodide staining-based flow cytometry; format: functional
[6] = Induction of filaggrin expression in human PHK160b cells at 100 uM incubated for 48 hrs by quantitative RT-PCR analysis relative to untreated control; format: functional
[7] = Cell cycle arrest in human PHK160b cells assessed as increase in expression of NOTCH1 at 100 uM incubated for 72 hrs by RT-PCR method relative to control; format: functional
Homo sapiens [8] = species: Homo sapiens; experiment: Induction of keratin-1 expression in human PHK160b cells incubated for 48 hrs by quantitative RT-PCR analysis relative to untreated control; format: functional, cell-based
Homo sapiens [9] = species: Homo sapiens; experiment: Cell cycle arrest in human PHK160b cells assessed as decrease in expression of cyclin D1 incubated for 72 hrs by western blot method; format: functional, cell-based
Homo sapiens [10] = species: Homo sapiens; experiment: Induction of keratin-10 expression in human PHK160b cells incubated for 48 hrs by quantitative RT-PCR analysis relative to untreated control; format: functional, cell-based
[11] = Induction of keratin-10 expression in human PHK160b cells at 100 uM incubated for 48 hrs by quantitative RT-PCR analysis relative to untreated control; format: functional
[12] = Cell cycle arrest in human PHK160b cells assessed as accumulation at G0/G1 phase at 100 uM incubated for 48 hrs by propidium iodide staining-based flow cytometry; format: functional
Homo sapiens [13] = species: Homo sapiens; experiment: Cell cycle arrest in human PHK160b cells assessed as increase in expression of NOTCH 1 at 50 to 100 uM incubated for 72 hrs by western blot method; format: functional, cell-based
[14] = Induction of apoptosis in human PHK160b cells assessed as induction of multiple fragmented segregated bodies at 100 uM incubated for 48 hrs Hoechst 33,342 staining based fluorescent microscopy; format: cell-based
Homo sapiens [15] = species: Homo sapiens; experiment: Induction of filaggrin expression in human PHK160b cells incubated for 48 hrs by quantitative RT-PCR analysis relative to untreated control; format: functional, cell-based
[16] = Induction of keratin-1 expression in human PHK160b cells at 100 uM incubated for 48 hrs by quantitative RT-PCR analysis relative to untreated control; format: functional
Zone of skin [17] = experiment: Induction of keratinocyte differentiation in human EPI-212 EpiDerm skin model assessed as increase in keratin-10 expression at 100 uM incubated for 7 days by DAB based immunohistochemical staining analysis (Rvb= 35.8%); format: functional
[18] = Cell cycle arrest in human PHK160b cells assessed as increase in expression of p21 at 0 to 100 uM incubated for 72 hrs by RT-PCR method; format: functional
[19] = Cytotoxicity against human PHK160b cells assessed as reduction in cell growth at 100 uM incubated for 24 to 96 hrs by MTT assay; format: cell-based
[20] = Cytotoxicity against human PHK160b cells assessed as reduction in cell viability at 100 uM incubated for 24 hrs by MTT assay; format: cell-based
Homo sapiens [21] = species: Homo sapiens; experiment: Cell cycle arrest in human PHK160b cells assessed as increase in expression of p21 incubated for 72 hrs by western blot method; format: functional, cell-based
[22] = Cytotoxicity against human PHK160b cells assessed as reduction in cell viability at 10 to 1000 uM incubated for 48 hrs by LDH release assay; format: cell-based
Homo sapiens [23] = species: Homo sapiens; experiment: Cell cycle arrest in human PHK160b cells assessed as decrease in expression of cyclin E incubated for 72 hrs by western blot method; format: functional, cell-based
[24] = Cell cycle arrest in human PHK160b cells assessed as accumulation at G0/G1 phase at 50 uM incubated for 48 hrs by propidium iodide staining-based flow cytometry; format: functional
[25] = Cell cycle arrest in human PHK160b cells assessed as accumulation at G2/M phase at 50 uM incubated for 48 hrs by propidium iodide staining-based flow cytometry; format: functional
[26] = Cytotoxicity against human PHK160b cells assessed as reduction in cell viability incubated for 48 hrs by LDH release assay; format: cell-based
[27] = Cytotoxicity against human PHK160b cells assessed as reduction in cell growth at 100 uM incubated up to 96 hrs by MTT assay; format: cell-based

Which “fold change (FC)” value [1] does the source give for `O=C(OC[C@H]1OC[C@H](OC(=O)c2cc(O)c(O)c(O)c2)[C@@H](OC(=O)c2cc(O)c(O)c(O)c2)[C@@H]1OC(=O)c1cc(O)c(O)c(O)c1)c1cc(O)c(O)c(O)c1` here?
Its value is 0.64.

For `O=C(O[C@H]1[C@H](O)[C@@H](CO)OC[C@@H]1O)c1cc(O)c(O)c(O)c1`, which Activity (Homo sapiens [2]) is on record?
The Activity was “Active”.

With `O=C(O[C@H]1[C@H](O)[C@@H](OC(=O)c2cc(O)c(O)c(O)c2)CO[C@@H]1CO)c1cc(O)c(O)c(O)c1` [MAPLEXIN D] as the compound, how does the “fold change (FC)” value [3] read?
Its value is 2.2.

For `O=C(OC[C@H]1OC[C@H](O)[C@@H](O)[C@@H]1O)c1cc(O)c(O)c(O)c1` [GINNALIN B], which Activity (Zone of skin [4]) is on record?
The Activity was 56.6%.

And the Activity [5]?
Its Activity is 20%.

And the “fold change (FC)” value [6]?
Its value is 5.2.

What about the “fold change (FC)” value [7] of the same compound?
The value was 1.9.

What about the Activity (Homo sapiens [8]) of the same compound?
The Activity was “Dose-dependent effect”.

And the Activity (Homo sapiens [9])?
The Activity was “Dose-dependent effect”.

What about the Activity (Homo sapiens [10]) of the same compound?
Its Activity is “Dose-dependent effect”.

What about the “fold change (FC)” value [11] of the same compound?
Its value is 1.7.

What about the Activity [12] of the same compound?
The Activity was 66%.

And the Activity (Homo sapiens [13])?
The Activity was “Active”.

What about the Activity [14] of the same compound?
Its Activity is “Non-Toxic”.

What about the Activity (Homo sapiens [15]) of the same compound?
The Activity was “Dose-dependent effect”.

What about the “fold change (FC)” value [3] of the same compound?
The value was 1.9.

What about the “fold change (FC)” value [16] of the same compound?
The value was 2.9.

What about the Activity (Zone of skin [17]) of the same compound?
Its Activity is 42.4%.

What about the “fold change (FC)” value [18] of the same compound?
Its value is 1.4.

And the Activity [19]?
The Activity was “Toxic”.

And the Activity [20]?
The Activity was “Non-Toxic”.

What about the Activity (Homo sapiens [21]) of the same compound?
The Activity was “Dose-dependent effect”.

What about the Activity [22] of the same compound?
Its Activity is “Non-Toxic”.

What about the Activity (Homo sapiens [23]) of the same compound?
The Activity was “Dose-dependent effect”.

For `COc1cc2c(c(OC)c1OC)-c1ccc(OC)c(=O)cc1[C@@H](NC(C)=O)CC2` [COLCHICINE], which Activity [24] is on record?
Its Activity is 18%.

And the Activity [14]?
Its Activity is “Toxic”.

What about the Activity [25] of the same compound?
Its Activity is 74.6%.

And the Activity [26]?
Its Activity is “Dose-dependent effect”.

Which results are given for `OC[C@H]1OC[C@H](O)[C@@H](O)[C@@H]1O` [1,5-Anhydrosorbitol]?
Activity [27]: Non-Toxic; Activity (Homo sapiens [2]): inactive

For `O=C(O[C@H]1CO[C@H](CO)[C@@H](O)[C@@H]1O)c1cc(O)c(O)c(O)c1`, which Activity (Homo sapiens [2]) is on record?
The Activity was “Active”.

Which Activity (Homo sapiens [2]) does the source give for `O=C(OC[C@H]1OC[C@H](O)[C@@H](O)[C@@H]1O)c1ccccc1` here?
The Activity was “inactive”.

With `O=C(OC[C@H]1OC[C@H](O)[C@@H](O)[C@@H]1OC(=O)c1cc(O)c(O)c(O)c1)c1cc(O)c(O)c(O)c1` as the compound, how does the “fold change (FC)” value [3] read?
Its value is 2.18.

Which Activity (Homo sapiens [2]) does the source give for `COc1cc(C(=O)OC[C@H]2OC[C@H](O)[C@@H](O)[C@@H]2O)cc(OC)c1OC` here?
The Activity was “inactive”.

Which Activity (Homo sapiens [2]) does the source give for `O=C(O[C@H]1[C@H](O)[C@@H](O)CO[C@@H]1CO)c1cc(O)c(O)c(O)c1` here?
Its Activity is “Active”.
